# Data: patent publication US6984510B2, “Vitamin B6-phosphate phosphatase” (DSM IP Assets B.V., priority 2001, dated 2006)
# Like-named read-outs stand apart in the source and are kept apart here.
# Columns and labels:
# [1] = biological target: T1, VB6PP (Sinorhizobium meliloti, UniProt A7BK78); experiment: substrate specificity of the enzyme (phosphate release, malachite green method); assay type: biochemical; conditions: for Relative activity (%): substrate 160 μM final concentration, PNP = 100
# T1 sequence (A7BK78 entry or part of it): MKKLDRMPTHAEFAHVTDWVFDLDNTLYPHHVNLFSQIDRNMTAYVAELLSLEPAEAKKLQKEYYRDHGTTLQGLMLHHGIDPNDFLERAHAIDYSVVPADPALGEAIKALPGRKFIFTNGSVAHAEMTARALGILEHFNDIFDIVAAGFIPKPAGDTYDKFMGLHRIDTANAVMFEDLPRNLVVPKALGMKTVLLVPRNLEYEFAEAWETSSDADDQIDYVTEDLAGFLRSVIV
# Description: After incubation for 30 minutes, the reaction mixture was cooled down into an ice bath. Activity was determined in the following two ways. […] One unit of the enzyme activity was defined as-the amount of enzyme synthesizing 1 μmole of vitamin B6 for 30 minutes in the assay system described above.
# [2] = biological target: T1, VB6PP; experiment: co-factor requirement of the enzyme to convert VB6P to vitamin B6 (standard enzyme assay); assay type: biochemical; parameters: Relative activity (%): concentration or dose not given beside the values
# [3] = metal salt as co-factor, MnCl2 = 100
smiles,measurement,setting,value
O=[N+]([O-])c1ccc(OP(=O)(O)O)cc1 [p-nitrophenyl phosphate],Relative activity (%),[1],29%
[Cl][Mn][Cl] [MnCl2],co-factor for conversion of VB6P to vitamin B6,[2]; divalent metal ion,could serve as a co-factor
same,Relative activity (%),[2]; [3],100%
[Cl][Ni][Cl] [NiCl2],co-factor for conversion of VB6P to vitamin B6,[2]; divalent metal ion,could serve as a co-factor
same,Relative activity (%),[2]; [3],7%
"Cc1ncc(COP(=O)(O)O)c(CN)c1O [PMP, pyridoxamine 5′-phosphate]",Substrate specificity,[1],active
same,Relative activity (%),[1],0.1%
Nc1ncnc2c1ncn2[C@@H]1O[C@H](COP(=O)(O)OP(=O)(O)OP(=O)(O)O)[C@@H](O)[C@H]1O [adenosine triphosphate],Relative activity (%),[1],0%
N[C@@H](COP(=O)(O)O)C(=O)O [O-phospho-L-serine],Relative activity (%),[1],0%
Nc1ncnc2c1ncn2[C@@H]1O[C@H](COP(=O)(O)O)[C@@H](O)[C@H]1O [adenosine monophosphate],Relative activity (%),[1],6%
O=C(O)C(O)COP(=O)(O)O (stereo not drawn) [D(−)3-phosphoglyceric acid],Relative activity (%),[1],0%
O=C(O)COP(=O)(O)O [2-phosphoglycolic acid],Relative activity (%),[1],0%
[Cl-].[Cl-].[Mg+2] [MgCl2],co-factor for conversion of VB6P to vitamin B6,[2]; divalent metal ion,could serve as a co-factor
same,Relative activity (%),[2]; [3],88%
"Cc1ncc(COP(=O)(O)O)c(C=O)c1O [PLP, pyridoxal 5′-phosphate]",Substrate specificity,[1],active
same,Relative activity (%),[1],40%
Nc1ncnc2c1ncn2[C@@H]1O[C@H](COP(=O)(O)OP(=O)(O)O)[C@@H](O)[C@H]1O [adenosine diphosphate],Relative activity (%),[1],0%
[Cl][Sn][Cl] [SnCl2],co-factor for conversion of VB6P to vitamin B6,[2]; divalent metal ion,could serve as a co-factor
same,Relative activity (%),[2]; [3],11%
O=P(O)(O)Oc1cccc2ccccc12 [1-naphthyl phosphate],Relative activity (%),[1],9%
O=C[C@H](O)[C@@H](O)[C@H](O)[C@H](O)COP(=O)(O)O [D-glucose 6-phosphate],Relative activity (%),[1],0%
[Cl-].[Cl-].[Co+2] [CoCl2],Relative activity (%),[2],65%
same,co-factor for conversion of VB6P to vitamin B6,[2],could serve as a co-factor
